As a reminder, the pIC50 is the negative decadic logarithm of the IC50, by convention in mol/L. Higher therefore signals a low IC50.

Consider 53 compounds from US20260325540A1 (priority 2023, published 2026).

pIC50: −log10 of the molar value.

The target in the assay is HCoV-229E 3CL protease (Human coronavirus 229E, UniProt P0C6U2). The experiment in a line: FRET based protease assay, HCoV-229E 3CL. The note with it: 229E IC50, 6 nM H229E-CoV Chis-3CLpro, 6 μM peptide 1 substrate, 25° C., 1.5 hrs, pH 7.5. In kind it is biochemical.
Sequence of HCoV-229E 3CL protease (P0C6U2 2966-3267): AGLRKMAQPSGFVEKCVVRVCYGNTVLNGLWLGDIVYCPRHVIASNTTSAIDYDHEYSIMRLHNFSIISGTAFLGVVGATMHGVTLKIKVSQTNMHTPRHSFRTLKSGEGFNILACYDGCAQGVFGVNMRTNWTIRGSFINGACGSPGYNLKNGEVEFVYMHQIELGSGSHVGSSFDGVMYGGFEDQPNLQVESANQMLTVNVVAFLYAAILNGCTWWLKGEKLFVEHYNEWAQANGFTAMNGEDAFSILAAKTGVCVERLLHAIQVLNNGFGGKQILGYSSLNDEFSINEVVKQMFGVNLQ
`CC1(C)[C@@H]2[C@H]3C(=O)N[C@H](C#N)C[C@@H]4C(=O)NC[C@@H]4CCCC[C@H](NC(=O)C45CCC(C4)C5)C(=O)N3C[C@@H]21` [Example 148] had a pIC50 of more than 7.00. The compound `CC(C)C[C@@H]1NC(=O)[C@@H](NC(=O)C(C)(C)C)CC/C=C\[C@H]2CNC(=O)[C@H]2C[C@@H](C#N)NC1=O` [Example 59] had a pIC50 of 6.00 to 7.00. Next, `CC1(C)[C@@H]2[C@H]3C(=O)N[C@H](C#N)C[C@@H]4C(=O)NC[C@@H]4CCCC[C@H](NC(=O)C4CCC4)C(=O)N3C[C@@H]21` [Example 76]: more than 7.00.

As to `CC(C)C[C@@H]1NC(=O)[C@@H](C2CCCC2)CCCC[C@H]2CNC(=O)[C@H]2C[C@@H](C#N)NC1=O` [Example 41], the pIC50 is less than 4.70. To `CC(C)C[C@@H]1NC(=O)[C@@H](C2CCCC2)CCC[C@H]2CNC(=O)[C@@H]2C[C@@H](C#N)NC1=O` [Example 28] belongs 4.70 to 6.00; to `CC1(C)[C@@H]2[C@H]3C(=O)N[C@H](C#N)C[C@@H]4C(=O)NCC[C@@H]4CCCC[C@H](NC(=O)C(F)(F)F)C(=O)N3C[C@@H]21` [Example 104], more than 7.00; to `CC(C)(C)OC(=O)N[C@H]1CCCC[C@H]2CCNC(=O)[C@H]2C[C@@H](C#N)NC(=O)[C@@H]2[C@@H]3[C@H](CN2C1=O)C3(C)C` [Example 110], more than 7.00. To `CC(C)(C)C[C@@H]1NC(=O)[C@@H](NC(=O)C(C)(C)C)CCCC[C@H]2CNC(=O)[C@H]2C[C@@H](C#N)NC1=O` [Example 53] belongs more than 7.00; to `CC(C)C[C@@H]1NC(=O)CCCCC[C@H]2CCNC(=O)[C@@H]2C[C@@H](C=O)NC1=O` [Example 34], 6.00 to 7.00; to `CC(C)(C)OC(=O)N[C@H]1CC/C=C/[C@H]2CNC(=O)[C@H]2C[C@@H](C#N)NC(=O)[C@@H]2[C@H]3CCC[C@H]3CN2C1=O` [Example 112], more than 7.00.

The compound `CC(C)(C)OC(=O)N[C@H]1CCCC[C@H]2CNC(=O)[C@H]2C[C@@H](C#N)NC(=O)[C@@H]2CC3(CCN2C1=O)CC3` [Example 132] showed a pIC50 of more than 7.00.

Compound `CC(C)(C)C[C@@H]1NC(=O)[C@@H](NC(=O)OC(C)(C)C)CCCC[C@H]2CNC(=O)[C@H]2C[C@@H](C#N)NC1=O` [Example 60] gave a pIC50 of more than 7.00. To `CC1(C)[C@@H]2[C@H]3C(=O)N[C@H](C#N)C[C@@H]4C(=O)NC[C@@H]4CCCC[C@H](N)C(=O)N3C[C@@H]21` [Example 161] belongs more than 7.00; to `CC(C)C[C@@H]1NC(=O)[C@@H](Cc2ccccc2)CCCC[C@H]2CNC(=O)[C@H]2C[C@@H](C#N)NC1=O` [Example 39], 6.00 to 7.00; to `CC1(C)[C@@H]2[C@H]3C(=O)N[C@H](C#N)C[C@@H]4C(=O)NC[C@@H]4CCCC[C@H](NC(=O)C(C)(C)C(F)(F)F)C(=O)N3C[C@@H]21` [Example 141], more than 7.00. To `CC1(C)[C@@H]2[C@H]3C(=O)N[C@H](C#N)C[C@@H]4C(=O)NC[C@@H]4CCCC[C@H](Nc4ccnc(C(F)(F)F)n4)C(=O)N3C[C@@H]21` [Example 164] belongs more than 7.00; to `CC(C)C[C@@H]1NC(=O)[C@@H](NC(=O)OC(C)(C)C)CCC[C@H]2CNC(=O)[C@@H]2C[C@@H](C=O)NC1=O` [Example 19], more than 7.00; to `CC1(C)[C@@H]2[C@H]3C(=O)N[C@H](C#N)C[C@@H]4C(=O)NC[C@@H]4/C=C/CC[C@H](NC(=O)C4CC(F)(F)C4)C(=O)N3C[C@@H]21` [Example 83], more than 7.00. To `CC(C)C[C@@H]1NC(=O)[C@@H](OC(C)(C)C)CCC[C@H]2CNC(=O)[C@@H]2C[C@@H](C=O)NC1=O` [Example 20] belongs 4.70 to 6.00. `CC1(C)[C@@H]2[C@H]3C(=O)N[C@H](C#N)C[C@@H]4C(=O)NC[C@@H]4CCCC[C@H](Nc4cc(C(F)(F)F)ncn4)C(=O)N3C[C@@H]21` [Example 163] showed a pIC50 of more than 7.00. To `CO[C@@H]1C[C@H]2C(=O)N[C@H](C#N)C[C@@H]3C(=O)NC[C@@H]3CCCC[C@H](NC(=O)OC(C)(C)C)C(=O)N2C1` [Example 147] belongs 6.00 to 7.00; to `CC(C)C[C@@H]1NC(=O)CCCCC[C@H]2CNC(=O)[C@H]2C[C@@H](C=O)NC1=O` [Example 30], more than 7.00; to `CC1(C)[C@@H]2[C@H]3C(=O)N[C@H](C#N)C[C@@H]4C(=O)NC[C@@H]4CCCC[C@H](NC(=O)OC4CCCC4)C(=O)N3C[C@@H]21` [Example 75], more than 7.00. To `CC(C)C[C@@H]1NC(=O)[C@@H](Cc2ccccc2)CCC[C@H]2CNC(=O)[C@@H]2C[C@@H](C=O)NC1=O` [Example 10] belongs 4.70 to 6.00. Next, `Cc1cc(C(=O)N[C@H]2CCCC[C@H]3CNC(=O)[C@H]3C[C@@H](C#N)NC(=O)[C@@H]3[C@@H]4[C@H](CN3C2=O)C4(C)C)no1` [Example 122]: more than 7.00; `CC(C)C[C@@H]1NC(=O)[C@@H](OC(C)(C)C)CCC[C@H]2CNC(=O)[C@@H]2C[C@@H](C#N)NC1=O` [Example 29]: less than 4.70; `CC(C)C[C@@H]1NC(=O)CCCCCC[C@@H]2CNC(=O)[C@@H]2C[C@@H](C=O)NC1=O` [Example 46]: 6.00 to 7.00.

`CC(C)C[C@@H]1NC(=O)[C@@H](Cc2ccccc2)CCC[C@@H]2CNC(=O)[C@@H]2C[C@@H](C=O)NC1=O` [Example 9] had a pIC50 of 6.00 to 7.00.

As to `CC1(C)[C@@H]2[C@H]3C(=O)N[C@H](C#N)C[C@@H]4C(=O)NCC[C@@H]4CCCC[C@H](NC(=O)c4ccc(F)cc4F)C(=O)N3C[C@@H]21` [Example 129], the pIC50 was more than 7.00. To `CC(C)C[C@@H]1NC(=O)CCCCCC[C@H]2CNCC(=O)[C@@H]2C[C@@H](C=O)NC1=O` [Example 52] belongs 6.00 to 7.00; to `CC1(C)[C@@H]2[C@H]3C(=O)N[C@H](C#N)C[C@@H]4C(=O)NC[C@@H]4CCCC[C@H](NS(=O)(=O)C4CC4)C(=O)N3C[C@@H]21` [Example 156], more than 7.00; to `CC(C)(C)C[C@@H]1NC(=O)[C@@H](NC(=O)C2(C(F)(F)F)CC2)CCCC[C@H]2CNC(=O)[C@H]2C[C@@H](C#N)NC1=O` [Example 149], more than 7.00. Next, `CC1(C)[C@@H]2[C@H]3C(=O)N[C@H](C#N)C[C@@H]4C(=O)NC[C@@H]4CCCC[C@H](NC(=O)c4cncnc4)C(=O)N3C[C@@H]21` [Example 107]: more than 7.00; `CC(C)(C)C(=O)N[C@H]1CCCC[C@H]2CNC(=O)[C@H]2C[C@@H](C#N)NC(=O)[C@@H]2[C@@H]3[C@H](CN2C1=O)C3(C)C` [Example 55]: more than 7.00.

`CC1(C)[C@@H]2[C@H]3C(=O)N[C@H](C#N)C[C@@H]4C(=O)NC[C@@H]4CCCC[C@H](NC(=O)C(F)(F)F)C(=O)N3C[C@@H]21` [Example 87]: the pIC50 is more than 7.00. To `CC(C)(C)OC(=O)N[C@H]1CCCC[C@H]2CCNC(=O)C2C[C@@H](C#N)NC(=O)[C@@H]2[C@H]3CCC[C@H]3CN2C1=O` (some centres unmarked) [Example 98] belongs more than 7.00. To `CC(C)(C)OC(=O)N[C@H]1CCCC[C@H]2CNC(=O)[C@H]2C[C@@H](C#N)NC(=O)[C@@H]2[C@H]3CC[C@H](CC3)N2C1=O` [Example 111] belongs 6.00 to 7.00; to `CC(C)C[C@@H]1NC(=O)CCCC[C@H]2CNC(=O)[C@@H]2C[C@@H](C=O)NC1=O` [Example 4], more than 7.00; to `CC(C)(C(=O)N[C@H]1CCCC[C@H]2CNC(=O)[C@H]2C[C@@H](C#N)NC(=O)[C@@H]2[C@@H]3[C@H](CN2C1=O)C3(C)C)c1ccc(Cl)cc1` [Example 121], more than 7.00. As to `CC1(C)[C@@H]2[C@H]3C(=O)N[C@H](C#N)C[C@@H]4C(=O)NC[C@@H]4CCCC[C@H](NC(=O)c4ccc(F)cc4)C(=O)N3C[C@@H]21` [Example 82], the pIC50 is more than 7.00. To `CC(C)(C)OC(=O)N[C@@H]1CCCC[C@H]2CNC(=O)[C@H]2C[C@@H](C#N)NC(=O)[C@@H]2[C@@H]3[C@H](CN2C1=O)C3(C)C` [Example 128] belongs less than 4.70; to `CC1(C)[C@@H]2[C@H]3C(=O)N[C@H](C#N)C[C@@H]4C(=O)NC[C@@H]4CCCC[C@H](NC(=O)c4ccc(F)c(C(F)(F)F)c4)C(=O)N3C[C@@H]21` [Example 116], more than 7.00; to `CC1(C)[C@@H]2[C@H]3C(=O)N[C@H](C#N)C[C@@H]4C(=O)NC[C@@H]4CCCC[C@H](NC(=O)C4CC(F)(F)C4)C(=O)N3C[C@@H]21` [Example 62], more than 7.00. To `CC(C)C[C@@H]1NC(=O)[C@H](Cc2ccccc2)CCC[C@@H]2CNC(=O)[C@@H]2C[C@@H](C=O)NC1=O` [Example 11] belongs 6.00 to 7.00; to `Cc1nc(C(=O)N[C@H]2CCCC[C@H]3CNC(=O)[C@H]3C[C@@H](C#N)NC(=O)[C@@H]3[C@@H]4[C@H](CN3C2=O)C4(C)C)co1` [Example 115], more than 7.00; to `CC1(C)[C@@H]2[C@H]3C(=O)N[C@H](C#N)C[C@@H]4C(=O)NC[C@@H]4CCCC[C@H](NC(=O)C4CCOCC4)C(=O)N3C[C@@H]21` [Example 85], more than 7.00. Next, `CC1(C)[C@@H]2[C@H]3C(=O)N[C@H](C#N)C[C@@H]4C(=O)NC[C@@H]4CCCC[C@H](NC(=O)CC4CCCC4)C(=O)N3C[C@@H]21` [Example 90]: more than 7.00; `N#C[C@@H]1C[C@@H]2C(=O)NC[C@@H]2/C=C/CC[C@H](NC(=O)C(F)(F)F)C(=O)N2C[C@@H]3CCC[C@@H]3[C@H]2C(=O)N1` [Example 101]: more than 7.00; `CC(C)C[C@@H]1NC(=O)CCCCC[C@@H]2CCNC(=O)[C@H]2C[C@@H](C=O)NC1=O` [Example 33]: 4.70 to 6.00.

`CC(C)C[C@@H]1NC(=O)[C@@H](NC(=O)C(C)(C)C)CCCC[C@H]2CNC(=O)[C@@H]2C[C@@H](C#N)NC1=O` [Example 54]: the negative-log IC50 (pIC50) was 4.70 to 6.00.

`CC1(C)[C@@H]2[C@H]3C(=O)N[C@H](C#N)C[C@@H]4C(=O)NC[C@@H]4CCCC[C@H](NC(=O)C4CCCCC4)C(=O)N3C[C@@H]21` [Example 77] had a pIC50 of more than 7.00. The compound `CC(C)(C)CC(=O)N[C@H]1CCCC[C@H]2CCNC(=O)[C@H]2C[C@@H](C#N)NC(=O)[C@@H]2[C@H]3CCC[C@H]3CN2C1=O` [Example 95] gave a pIC50 of more than 7.00. Next, `CC(C)C[C@@H]1NC(=O)[C@@H](Cc2ccccc2)CCCC[C@H]2CNC(=O)[C@H]2C[C@@H](C=O)NC1=O` [Example 36]: more than 7.00.
